# Values joined by “and” are separate entries in the source; they are usually repeats but may differ in a detail not shown here. Equal values may be shown once.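 Following 48 hours of exposure in 96-well plates, responses at five concentrations were used to interpolate endpoints linearly. GI50 marks 50% less growth. TGI marks complete inhibition of growth.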
# How the values were obtained:
# Test in all cases: NCI anticancer screen, dose series, 48 h
# [1] = tested on: HOP-62 NSCLC
# [2] = tested on: MOLT-4 leukemia
# [3] = tested on: UO-31 renal
# [4] = tested on: CAKI-1 renal
# [5] = tested on: SNB-19 CNS
# [6] = tested on: RPMI-8226 leukemia
# [7] = tested on: OVCAR-8 ovarian
# [8] = tested on: TK-10 renal
# [9] = tested on: SF-295 CNS
# [10] = tested on: U251 CNS
smiles,measurement,setting,value
Cc1nc2ccccc2c(=O)n1/N=C(\N=Nc1cc(Cl)ccc1Cl)c1cccc(-c2ccco2)c1,TGI,[1],> 100 µM
same,TGI,[2],> 100 µM
same,TGI,[3],> 100 µM
same,TGI,[4],> 100 µM
same,TGI,[5],> 100 µM
same,TGI,[6],> 100 µM
same,TGI,[7],> 100 µM
same,TGI,[8],> 100 µM
same,TGI,[9],> 100 µM
same,TGI,[10],> 100 µM
O=S(=O)(Nc1cc(Br)c(O)c2ccccc12)c1ccc(F)cc1,GI50,[1],3.58 µM
same,TGI,[1],18.5 µM
same,GI50,[2],2.31 µM
same,TGI,[2],5.33 µM
same,GI50,[3],2.15 µM
same,TGI,[3],11.6 µM
same,GI50,[4],7.7 µM
same,TGI,[4],20.5 µM
same,GI50,[5],9.35 µM
same,TGI,[5],28 µM
same,GI50,[6],2.94 µM
same,TGI,[6],20.1 µM
same,GI50,[7],2.78 µM
same,TGI,[7],7.87 µM
same,GI50,[8],18.4 µM
same,TGI,[8],32.7 µM
same,GI50,[9],15.7 µM
same,TGI,[9],29.7 µM
same,GI50,[10],2.96 µM
same,TGI,[10],7.77 µM
Cc1csc(/C=N/NC(=O)c2nnn(-c3ccnc4c(C(F)(F)F)cccc34)c2C)c1,GI50,[1],63.5 µM
same,TGI,[1],> 100 µM
same,GI50,[2],48.8 µM
same,TGI,[2],> 100 µM
same,GI50,[3],> 100 µM
same,TGI,[3],> 100 µM
same,GI50,[4],64.6 µM
same,TGI,[4],> 100 µM
same,GI50,[5],97.3 µM
same,TGI,[5],> 100 µM
same,GI50,[6],33.7 µM
same,TGI,[6],> 100 µM
same,GI50,[7],74.1 µM
same,TGI,[7],> 100 µM
same,GI50,[8],41.8 µM
same,TGI,[8],> 100 µM
same,GI50,[9],34.7 µM
same,TGI,[9],> 100 µM
same,GI50,[10],22.3 µM
same,TGI,[10],> 100 µM
CC(C)N(C(=O)C12C3C4C5C3C1(C(=O)N(C(C)C)C(C)C)C5(C#N)C42)C(C)C (stereo not drawn),TGI,[1],> 100 µM
same,TGI,[2],> 100 µM
same,TGI,[3],> 100 µM
same,TGI,[4],> 100 µM
same,TGI,[5],> 100 µM
same,TGI,[6],66.2 µM
same,TGI,[7],> 100 µM
same,TGI,[8],> 100 µM
same,TGI,[9],> 100 µM
same,TGI,[10],> 100 µM
COc1cc2ccccc2c2cc([N+](=O)[O-])oc12,TGI,[1],32 µM
same,TGI,[2],3.95 µM
same,TGI,[3],3.1 µM
same,TGI,[4],> 100 µM
same,TGI,[5],> 55.4 µM
same,TGI,[6],14.7 µM
same,TGI,[7],> 71.8 µM
same,TGI,[8],5.44 µM
same,TGI,[9],15.6 µM
same,TGI,[10],7.14 µM
Cc1c(C)c2c(c(C)c1NC(=O)/C=C\C(=O)O)CCC(C)(CCCC(C)CCCC(C)CCCC(C)C)O2 (stereo not drawn),GI50,[1],1.64 µM
same,TGI,[1],3.08 µM
same,GI50,[2],2.06 µM
same,TGI,[2],7.19 µM
same,GI50,[3],1.27 µM
same,TGI,[3],2.55 µM
same,GI50,[4],1.49 µM
same,TGI,[4],3.12 µM
same,GI50,[5],1.94 µM
same,TGI,[5],3.47 µM
same,GI50,[6],2.17 µM
same,TGI,[6],13.8 µM
same,GI50,[7],2.29 µM
same,TGI,[7],7.62 µM
same,GI50,[8],1.84 µM
same,TGI,[8],3.39 µM
same,GI50,[9],1.32 µM
same,TGI,[9],2.77 µM
same,GI50,[10],1.64 µM
same,TGI,[10],3.18 µM
CC1=CCC2(C#N)CCC1C2O (stereo not drawn),TGI,[1],> 100 µM
same,TGI,[2],> 100 µM
same,TGI,[3],> 100 µM
same,TGI,[4],> 100 µM
same,TGI,[5],> 100 µM
same,TGI,[6],> 100 µM
same,TGI,[7],> 100 µM
same,TGI,[8],> 100 µM
same,TGI,[9],> 100 µM
same,TGI,[10],> 100 µM
Cc1cc(N2CCN(C)CC2)nc(NCc2cc(Nc3ccnc4cc(Cl)ccc34)ccc2F)n1,GI50,[1],1.63 µM
same,TGI,[1],3.83 µM
same,GI50,[2],1.9 µM
same,TGI,[2],> 100 µM
same,GI50,[3],1.76 µM
same,TGI,[3],3.72 µM
same,GI50,[4],2.68 µM
same,TGI,[4],8.61 µM
same,GI50,[5],3.32 µM
same,TGI,[5],> 100 µM
same,GI50,[6],2.2 µM
same,TGI,[6],5.48 µM
same,GI50,[7],3.13 µM
same,TGI,[7],9.68 µM
same,GI50,[8],2.25 µM
same,TGI,[8],5.82 µM
same,GI50,[9],1.68 µM
same,TGI,[9],3.24 µM
same,GI50,[10],1.87 µM
same,TGI,[10],3.73 µM
N=CCCN(CCC=N)c1ccc(/C=C2\CN(NC(=O)c3ccc(Cl)cc3)C(c3ccccc3)=N2)cc1,TGI,[1],> 100 µM
same,TGI,[2],> 100 µM
same,TGI,[3],> 100 µM
same,TGI,[4],> 100 µM
same,TGI,[5],> 100 µM
same,TGI,[6],53.6 µM
same,TGI,[7],> 100 µM
same,TGI,[8],> 100 µM
same,TGI,[9],> 100 µM
same,TGI,[10],76.1 µM
COC1C(O)C(C)OC(OC2C(Oc3cccc4c(O)c5c(=O)oc6ccc(C)c7c(=O)oc(c34)c5c67)OC(C)C3O[C@H](c4ccccc4)OC32)C1O (stereo partly drawn),GI50,[1],0.15 µM
same,TGI,[1],2.17 µM
same,GI50,[2],0.0334 µM and 0.0236 µM
same,TGI,[2],11.5 µM
same,TGI,[3],2.43 µM
same,GI50,[4],0.134 µM
same,TGI,[4],0.616 µM and 5.28 µM
same,TGI,[5],19.2 µM
same,GI50,[6],0.115 µM
same,TGI,[6],11.1 µM
same,TGI,[7],8.23 µM
same,TGI,[8],7.37 µM
same,TGI,[9],3.97 µM
same,TGI,[10],10.9 µM
NC(C/[N+]([O-])=N/O)C(=O)O (stereo not drawn),GI50,[1],19.4 µM and 9.42 µM and 4.9 µM
same,TGI,[1],> 100 µM and 92.7 µM
same,GI50,[2],23.3 µM
same,TGI,[2],> 100 µM and 315 µM
same,GI50,[3],5.55 µM and 2.44 µM and 2.13 µM
same,TGI,[3],> 100 µM and 235 µM
same,GI50,[4],16.6 µM and 32.2 µM and 4.52 µM
same,TGI,[4],> 100 µM and 102 µM
same,GI50,[5],0.595 µM and 5.93 µM and 1.36 µM
same,TGI,[5],> 100 µM and 268 µM
same,GI50,[6],> 43.8 µM and 46.5 µM and 18 µM
same,TGI,[6],> 500 µM
same,TGI,[7],> 100 µM and 459 µM
same,GI50,[8],> 66.2 µM and > 100 µM and 30.9 µM
same,TGI,[8],> 459 µM
same,GI50,[9],6.24 µM
same,TGI,[9],> 500 µM
same,GI50,[10],0.772 µM and 3.82 µM and 0.713 µM
same,TGI,[10],> 500 µM
O=C(/C=C1\C(=O)N(Cc2ccc([N+](=O)[O-])cc2)c2ccccc21)c1ccc(OCCN2CCCCC2)cc1,GI50,[1],2.12 µM
same,TGI,[1],6.32 µM
same,GI50,[2],0.456 µM
same,TGI,[2],2.73 µM
same,GI50,[3],1.4 µM
same,TGI,[3],2.7 µM
same,GI50,[4],1.07 µM
same,TGI,[4],2.26 µM
same,GI50,[5],1.56 µM
same,TGI,[5],2.92 µM
same,GI50,[6],1.35 µM
same,TGI,[6],4.13 µM
same,GI50,[7],2.21 µM
same,TGI,[7],4.8 µM
same,GI50,[8],1.43 µM
same,TGI,[8],2.74 µM
same,GI50,[9],1.78 µM
same,TGI,[9],4.12 µM
same,GI50,[10],1.72 µM
same,TGI,[10],3.09 µM
CC1(C)C(c2ccccc2)C12CCC1(C2=O)C(c2ccccc2)C1(C)C (stereo not drawn),TGI,[1],60.5 µM
same,TGI,[2],37.2 µM
same,TGI,[3],58.9 µM
same,TGI,[4],60.3 µM
same,TGI,[5],76.5 µM
same,TGI,[6],33.3 µM
same,TGI,[7],> 100 µM
same,TGI,[8],> 100 µM
same,TGI,[9],47.2 µM
same,TGI,[10],34.9 µM
C=CCC1C(=O)C(C(=O)OC)N2CCc3c([nH]c4ccccc34)C12 (stereo not drawn),TGI,[1],> 100 µM
same,TGI,[2],> 100 µM
same,TGI,[3],> 100 µM
same,TGI,[4],> 100 µM
same,TGI,[5],> 100 µM
same,TGI,[6],> 100 µM
same,TGI,[7],> 100 µM
same,TGI,[8],> 100 µM
same,TGI,[9],> 100 µM
same,TGI,[10],> 100 µM
N#CCCN(CCC#N)C(=O)c1cccc(C(=O)N(CCC#N)CCC#N)c1,TGI,[1],> 100 µM
same,TGI,[2],> 100 µM
same,TGI,[3],> 100 µM
same,TGI,[4],> 100 µM
same,TGI,[5],> 100 µM
same,TGI,[6],> 85.1 µM
same,TGI,[7],> 69.1 µM
same,TGI,[8],> 100 µM
same,TGI,[9],> 100 µM
same,TGI,[10],> 59.4 µM
